In ChEMBL document CHEMBL4177654, “Synthesis, antifungal and antitumor activity of two new types of imidazolin-2-ones” (Bioorg Med Chem, 2017):
The source made the active and inactive calls. No cut-off for these calls is given here.

What was measured:
[1] = system: Botrytis cinerea; assay: Antifungal activity against Botrytis cinerea assessed as inhibition of mycelium growth at 25 ug/ml after 48 hrs relative to control; assay type: functional
[2] = system: Botrytis cinerea; assay: Antifungal activity against Botrytis cinerea assessed as inhibition of spore germination at 50 ug/ml after 6 hrs by microscopic analysis relative to control; assay type: functional
[3] = system: Botrytis cinerea; assay: Antifungal activity against Botrytis cinerea assessed as inhibition of mycelium growth at 5 ug/ml after 48 hrs relative to control; assay type: functional
[4] = system: Botrytis cinerea; assay: Antifungal activity against Botrytis cinerea assessed as inhibition of spore germination at 5 ug/ml after 6 hrs by microscopic analysis relative to control; assay type: functional
[5] = system: HeLa; assay: Inhibition of mTORC2 in human HeLa cells assessed as decrease in AKT phosphorylation at S473 residue preincubated for 1 hr followed by EGF1 stimulation after 30 mins by Western blot analysis; assay type: cell-based
[6] = Inhibition of mTORC2 in human HeLa cells assessed as decrease in AKT phosphorylation at S473 residue preincubated for 1 hr followed by EGF1 stimulation by ELISA; assay type: cell-based

C=C(C)n1c(=O)n(C(=O)c2cccc(Cl)c2)c2cc(Br)cnc21
inhibition at 25 µg/mL [1]: 55.8% | inhibition at 50 µg/mL [2]: 59.2%

C=C(C)n1c(=O)n(C(=O)c2ccccc2C)c2ccc([N+](=O)[O-])cc21
inhibition at 25 µg/mL [1]: 18.5% | inhibition at 50 µg/mL [2]: 68.3%

C=C(C)n1c(=O)n(C(=O)CCCC)c2cc(Br)cnc21
inhibition at 25 µg/mL [1]: 60.1% | inhibition at 50 µg/mL [2]: 59.2%

C=C(C)n1c(=O)n(C(=O)c2ccc(Cl)cc2)c2cc(Br)cnc21
inhibition at 25 µg/mL [1]: 54% | inhibition at 50 µg/mL [2]: 28.6%

C=C(C)n1c(=O)n(C(C)=O)c2ccc([N+](=O)[O-])cc21
inhibition at 25 µg/mL [1]: 97.7% | inhibition at 50 µg/mL [2]: 100%

C=C(C)n1c(=O)n(C(=O)CCCCC)c2cc([N+](=O)[O-])ccc21
inhibition at 25 µg/mL [1]: 5.65% | inhibition at 50 µg/mL [2]: 42.9%

C=C(C)n1c(=O)n(C(=O)C2CC2)c2cc(Br)cnc21
inhibition at 25 µg/mL [1]: 92.8% | inhibition at 50 µg/mL [2]: 78.6%

C=C(C)n1c(=O)n(C(=O)CC)c2ccc([N+](=O)[O-])cc21
inhibition at 25 µg/mL [1]: 8.72% | inhibition at 50 µg/mL [2]: 49.6%

C=C(C)n1c(=O)n(C(=O)c2cccc(C)c2)c2cc([N+](=O)[O-])ccc21
inhibition at 50 µg/mL [2]: 60.2%

C=C(C)n1c(=O)n(C(=O)c2ccccc2Cl)c2ccc([N+](=O)[O-])cc21
inhibition at 25 µg/mL [1]: 13.6% | inhibition at 50 µg/mL [2]: 72.1%

COC(=O)Nc1nc2ccccc2[nH]1 [CARBENDAZIM]
inhibition at 5 µg/mL [3]: 94.2%

C=C(C)n1c(=O)n(C(=O)c2cccc(Cl)c2)c2cc([N+](=O)[O-])ccc21
inhibition at 25 µg/mL [1]: 10.7% | inhibition at 50 µg/mL [2]: 63.4%

CO/C=C(/C(=O)OC)c1ccccc1Oc1cc(Oc2ccccc2C#N)ncn1 [AZOXYSTROBIN]
inhibition at 5 µg/mL [4]: 92.1% | inhibition at 5 µg/mL [3]: 98.8%

C=C(C)n1c(=O)n(C(=O)c2ccccc2)c2cc(Br)cnc21
inhibition at 25 µg/mL [1]: 37.2% | inhibition at 50 µg/mL [2]: 38.8%

C=C(C)n1c(=O)n(C(C)=O)c2cc([N+](=O)[O-])ccc21
inhibition at 25 µg/mL [1]: 33.5% | inhibition at 50 µg/mL [2]: 85.2%

C=C(C)n1c(=O)n(C(=O)c2cccc(C)c2)c2cc(Br)cnc21
inhibition at 25 µg/mL [1]: 41.5% | inhibition at 50 µg/mL [2]: 17.4%

C=C(C)n1c(=O)n(C(=O)CCCCCCC)c2cc(Br)cnc21
inhibition at 25 µg/mL [1]: 51.3% | inhibition at 50 µg/mL [2]: 49%

C=C(C)n1c(=O)n(C(=O)CCC)c2cc([N+](=O)[O-])ccc21
inhibition at 50 µg/mL [2]: 46.7%

C=C(C)n1c(=O)n(C(=O)CCl)c2cc(Br)cnc21
inhibition at 25 µg/mL [1]: 69% | inhibition [5]: Active | inhibition at 50 µg/mL [2]: 74.9%

C=C(C)n1c(=O)n(C(=O)CCC)c2ccc([N+](=O)[O-])cc21
inhibition at 50 µg/mL [2]: 52.4%

C=C(C)n1c(=O)n(C(=O)c2ccccc2Cl)c2cc([N+](=O)[O-])ccc21
inhibition at 50 µg/mL [2]: 59.2%

C=C(C)n1c(=O)n(C(=O)CCCC)c2cc([N+](=O)[O-])ccc21
inhibition at 25 µg/mL [1]: 7.26% | inhibition at 50 µg/mL [2]: 48.5%

C=C(C)n1c(=O)n(C(=O)c2ccccc2C)c2cc(Br)cnc21
inhibition at 25 µg/mL [1]: 53.7% | inhibition at 50 µg/mL [2]: 49%

C=C(C)n1c(=O)n(C(=O)CCCCC)c2ccc([N+](=O)[O-])cc21
inhibition at 50 µg/mL [2]: 55.9%

C=C(C)n1c(=O)n(C(=O)CCCC)c2ccc([N+](=O)[O-])cc21
inhibition at 50 µg/mL [2]: 51.8%

C=C(C)n1c(=O)n(C(=O)CC)c2cc(Br)cnc21
inhibition at 25 µg/mL [1]: 94.2% | inhibition at 50 µg/mL [2]: 98%

C=C(C)n1c(=O)n(C(=O)Cc2ccccc2)c2cc(Br)cnc21
inhibition at 25 µg/mL [1]: 66.7% | inhibition [5]: Active | inhibition at 50 µg/mL [2]: 59.2%

C=C(C)n1c(=O)n(C(=O)CCC)c2cc(Br)cnc21
inhibition at 25 µg/mL [1]: 97.3% | inhibition at 50 µg/mL [2]: 99%

C=C(C)n1c(=O)n(C(=O)c2cccc(Cl)c2)c2ccc([N+](=O)[O-])cc21
inhibition at 25 µg/mL [1]: 16.7% | inhibition at 50 µg/mL [2]: 86.2%

C=C(C)n1c(=O)n(C(=O)c2cccc(C)c2)c2ccc([N+](=O)[O-])cc21
inhibition at 25 µg/mL [1]: 11.4% | inhibition at 50 µg/mL [2]: 65.8%

C=C(C)n1c(=O)n(C(=O)c2ccccc2C)c2cc([N+](=O)[O-])ccc21
inhibition at 50 µg/mL [2]: 60.8%

C=C(C)n1c(=O)n(C(=O)CCCCCC)c2cc(Br)cnc21
inhibition at 25 µg/mL [1]: 44.9% | inhibition at 50 µg/mL [2]: 59.2%

C=C(C)n1c(=O)n(C(=O)c2ccccc2Cl)c2cc(Br)cnc21
inhibition at 25 µg/mL [1]: 17.5% | inhibition at 50 µg/mL [2]: 13.3%

C=C(C)n1c(=O)n(C(=O)CCCCC)c2cc(Br)cnc21
inhibition at 25 µg/mL [1]: 42.5% | inhibition at 50 µg/mL [2]: 23.5%

C=C(C)n1c(=O)n(C(=O)CCCCCCC)c2cc([N+](=O)[O-])ccc21
inhibition at 50 µg/mL [2]: 30.7%

C=C(C)n1c(=O)n(C(=O)CCCCCCC)c2ccc([N+](=O)[O-])cc21
inhibition at 50 µg/mL [2]: 32.5%

C=C(C)n1c(=O)n(C(=O)CC)c2cc([N+](=O)[O-])ccc21
inhibition at 50 µg/mL [2]: 45.2%

NC1(c2ccc(-c3nc4ccn5c(=O)[nH]nc5c4cc3-c3ccccc3)cc2)CCC1 [MK-2206]
IC50 [6]: 22.8 nM
